Laboratory results: publication PMC11891579, “Fluorescent PyrAte-(S)-citalopram conjugates enable imaging of the serotonin transporter in living tissue” (Chemical Science, 2025)

Tests used:
[1] = molecular target: T1, YhDAT (Homo sapiens, UniProt Q01959); assay: radioligand uptake inhibition assay ([3H]DA); assay type: cell-based; conditions: for IC50: HEK293 stably expressing YhDAT, 100 nM [3H]DA, mean and SD, N = 3-6, read-out: IC50, uptake inhibition at DAT (YhDAT); for Hill coefficient nH at DAT: uptake inhibition curve
T1 construct: expressed in transfected cells
T1 sequence (Q01959 whole entry): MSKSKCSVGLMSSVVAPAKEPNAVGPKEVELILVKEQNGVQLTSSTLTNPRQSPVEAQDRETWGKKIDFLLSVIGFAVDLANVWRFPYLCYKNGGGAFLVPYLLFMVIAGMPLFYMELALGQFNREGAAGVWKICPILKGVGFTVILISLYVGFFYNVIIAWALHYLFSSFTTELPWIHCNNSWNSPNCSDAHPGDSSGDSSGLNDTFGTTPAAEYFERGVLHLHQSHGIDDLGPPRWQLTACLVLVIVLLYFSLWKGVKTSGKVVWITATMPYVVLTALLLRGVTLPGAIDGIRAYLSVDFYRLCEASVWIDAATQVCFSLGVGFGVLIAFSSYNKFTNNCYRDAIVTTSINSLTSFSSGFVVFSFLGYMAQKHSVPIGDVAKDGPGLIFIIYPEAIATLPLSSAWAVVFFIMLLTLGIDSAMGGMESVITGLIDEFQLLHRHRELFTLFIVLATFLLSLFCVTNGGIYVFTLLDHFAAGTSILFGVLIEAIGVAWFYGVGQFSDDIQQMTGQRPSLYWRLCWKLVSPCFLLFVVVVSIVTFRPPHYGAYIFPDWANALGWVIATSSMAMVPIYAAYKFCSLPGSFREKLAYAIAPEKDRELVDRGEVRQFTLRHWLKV
Experimental: (§1) 1. Biological characterization
(§2) 1.1. Experimental methods
(§3) Buffer and solution compositions (in mM) are as follows:
(§4) Krebs-HEPES buffer (KHB): 120 NaCl, 3 KCl, 2 CaCl2, 2 MgCl2, 20 glucose, 10 HEPES NaOH, pH = 7.3 – 7.4. […]
(§5) 10 mM glucose, 1.25 mM NaH2PO4, pH = 7.4 (oxygenated with 95% O2, 5% CO2).
(§6) Human embryonic kidney 293 cells (HEK293) stably expressing the mCherry-tagged, YFP-tagged, and GFP-tagged human isoforms of SERT (mCherry-SERT, YhSERT, GhSERT), DAT (YhDAT), NET (hNET), and OCT3 (YhOCT3) were cultured in Dulbecco's modified Eagle's medium (DMEM) with high glucose (4.5 g/L) and l-glutamine (584 mg/L), supplemented with 10% fetal calf serum (FCS), 100 units/mL penicillin and 100 µg/mL streptomycin. The cells were cultured in a humidified atmosphere (37 °C, 5% CO2). Geneticin (50 µg/mL), Blasticidin (6 µg/mL), and Zeocin® (150 µg/mL) were added to maintain the selection pressure for the stable cell lines. Cells were typically seeded 24 hours prior to the experiments.
(§7) For uptake inhibition experiments, cells were seeded at 3.6 x 10^4 cells/0.2 mL into 96-well plates coated […]
(§8) with poly-d-lysine (PDL). […]
(§9) For uptake inhibition experiments, the cell medium was aspirated and the cells were washed once with 0.2 mL/well KHB at room temperature. The cells were pre-incubated with increasing concentrations of the substance of interest, diluted in KHB (0.05 mL/well). The pre-incubation solution was replaced with 0.05 mL/well KHB solution still containing the substance of interest and additionally the tritiated substrate (100 nM [3H]DA for YhDAT; 100 nM [3H]5HT for YhSERT; 20 nM and 50 nM [3H]MPP+ for hNET and YhOCT3), after 6 minutes (YhSERT), 5 minutes (YhDAT, hNET), or 10 minutes (YhOCT3). Substrate uptake was stopped after one minute (for [3H]DA and [3H]5HT), three minutes, or […]
The KHB was aspirated immediately. […] Non-specific uptake was determined in the presence of 30 µM paroxetine (for YhSERT), 50 µM GBR12909 (for YhDAT and hNET), or 100 µM decynium-22 (for YhOCT3). […]
[3H]-imipramine, and increasing concentrations of test compound, for 60 min at 20 – 22 °C. […] The amount of radioactivity in the filters was measured using a Tri-Carb 2800TR liquid scintillation analyzer (PerkinElmer). The Ki was calculated from the measured IC50 using the Cheng-Prusoff equation.
Prior to imaging, cell culture medium was replaced with pre-warmed KHB. […] PyrAtes were excited using a 405 nm laser, and its fluorescent signals collected using 525/50 nm emission filters; mCherry was excited using a 561 nm laser, and fluorescence was collected using 595/50 nm emission filters. […]
5HT-mediated currents were measured at room temperature (20-25°C) using whole-cell patch clamp in HEK293 cells stably expressing SERT. […]

[2] = molecular target: T2, YhSERT (Homo sapiens, UniProt P31645); assay: radioligand uptake inhibition assay ([3H]5HT); assay type: cell-based; conditions: for IC50: HEK293 stably expressing YhSERT, 100 nM [3H]5HT, mean and SD, N = 3-6, read-out: IC50, uptake inhibition at SERT (YhSERT); for selectivity to SERT vs. DAT / selectivity to SERT vs. NET / selectivity to SERT vs. OCT3: from uptake inhibition IC50; for decrease of SERT affinity (IC50) compared to (S)-citalopram: uptake inhibition IC50; for Hill coefficient nH at SERT: uptake inhibition curve
T2 construct: expressed in transfected cells
T2 sequence (P31645 whole entry): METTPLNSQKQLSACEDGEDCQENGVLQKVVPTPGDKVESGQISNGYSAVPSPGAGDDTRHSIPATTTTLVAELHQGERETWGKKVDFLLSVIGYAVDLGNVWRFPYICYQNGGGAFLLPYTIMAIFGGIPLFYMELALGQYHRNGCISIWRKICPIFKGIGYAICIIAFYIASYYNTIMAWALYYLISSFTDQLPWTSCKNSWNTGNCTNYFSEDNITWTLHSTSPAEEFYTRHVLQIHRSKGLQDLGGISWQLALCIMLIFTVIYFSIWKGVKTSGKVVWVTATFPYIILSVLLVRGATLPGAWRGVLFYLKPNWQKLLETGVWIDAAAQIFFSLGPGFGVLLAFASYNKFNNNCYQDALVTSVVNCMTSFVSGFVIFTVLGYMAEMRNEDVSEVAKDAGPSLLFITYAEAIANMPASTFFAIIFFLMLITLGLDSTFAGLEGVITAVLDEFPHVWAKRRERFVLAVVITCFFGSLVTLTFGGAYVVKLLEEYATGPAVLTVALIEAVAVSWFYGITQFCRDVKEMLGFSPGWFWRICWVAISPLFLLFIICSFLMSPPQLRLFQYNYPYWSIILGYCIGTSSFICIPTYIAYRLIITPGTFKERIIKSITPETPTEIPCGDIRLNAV
Experimental: as §1, §2, §3, §4, §5, §6, §7, §8, §9
(§10) ten minutes (for [3H]MPP+), by exchange of the substrate-containing buffer with 0.2 mL ice-cold KHB.
The KHB was aspirated immediately. Cells were lysed and prepared for [3H] content analysis by adding 0.2 mL Ultima Gold™ XR liquid scintillation cocktail. Measurements were performed in a 1450 MicroBeta microplate liquid scintillation counter. Non-specific uptake was determined in the presence of 30 µM paroxetine (for YhSERT), 50 µM GBR12909 (for YhDAT and hNET), or 100 µM decynium-22 (for YhOCT3). […]

[3] = molecular target: T3, SERT (Homo sapiens, UniProt P31645); assay: radioligand binding assay, [3H]-imipramine competition in SERT-containing membrane fractions; conditions: 3 nM [3H]-imipramine; membranes of HEK293 YhSERT; mean ± SD of three experiments; Cheng-Prusoff; read-out: Ki, competitive binding with imipramine
T3 construct: expressed in transfected cells
T3 sequence (P31645 whole entry): as above
Experimental: as §10
The KHB was aspirated immediately. Cells were lysed and prepared for [3H] content analysis by adding 0.2 mL Ultima Gold™ XR liquid scintillation cocktail. […]
microplate liquid scintillation counter. Non-specific uptake was determined in the presence of 30 µM paroxetine (for YhSERT), 50 µM GBR12909 (for YhDAT and hNET), or 100 µM decynium-22 (for YhOCT3).
For radioligand binding assays, membranes were first prepared from HEK293 cells stably expressing YhSERT. Cells were harvested from dishes using a plastic scraper and ice-cold PBS. Cells were recovered as a pellet after centrifugation (400× g) for 10 min at 4°C, and then re-suspended in HME buffer. The cell suspension was frozen rapidly by immersing in liquid N2, and then immediately thawed and sonicated for three 12 pulses/min cycles. Membrane fractions were collected after centrifugation at 40000× g for 15 minutes, and then re-suspended in HME buffer. Protein concentration was determined using Coomassie Brilliant Blue kit (BioRad Laboratories, California, USA). The binding reactions were carried out in a final volume of 0.25 mL B2 buffer containing 15 µg membranes, 3 nM

Structure (SMILES) | IC50 [1] [nM] | Hill coefficient nH at DAT [1] | IC50 [2] [nM] | selectivity to SERT vs. DAT [2] | selectivity to SERT vs. NET [2] [fold] | selectivity to SERT vs. OCT3 [2] [fold] | decrease of SERT affinity (IC50) compared to (S)-citalopram [2] | Hill coefficient nH at SERT [2] | Ki [3] [nM]
CCN(CC)c1ccc(-c2cc[n+]3c(-c4ccccc4)c(N4CCCC4)n(CCCC(=O)NCc4ccc5c(c4)CO[C@@]5(CCCN(C)C)c4ccc(F)cc4)c3c2)cc1 [PYR-C3-CIT, PyrAte-C3-(S)-citalopram] | 3570 | −1.3 | 400 | around 10 fold | 27 | 8.2 | 10 fold | −3.0 | –
CCN(CC)c1ccc(-c2cc[n+]3c(-c4ccccc4)c(N4CCCC4)n(CCCCCCC(=O)NCc4ccc5c(c4)CO[C@@]5(CCCN(C)C)c4ccc(F)cc4)c3c2)cc1 [PYR-C6-CIT, PyrAte-C6-(S)-citalopram] | 2050 | −1.5 | 830 | 2.5 fold | 15 | 2.5 | around 20 fold | −3.1 | 110 ± 70
